Data taken from publication PMC10786919, “Design-rules for stapled peptides with in vivo activity and their application to Mdm2/X antagonists” (Nature Communications, 2024).
pEC50, pKd: −log10 of the molar value. Read-outs that look alike come from different tables or passages of the source. Positions of bridges follow the written chain, without caps; N, C: chain ends. Non-standard residues stand in square brackets, D forms with d. Residues, ends and D or L forms follow the SMILES beside them. R8 = C=CCCCCCC[C@@](C)(N)C(=O)O; S5 = C=CCCC[C@](C)(N)C(=O)O

Assays:
[1] = Circular dichroism (CD) helicity; format: physicochemical
Experimental: A total of 5 µL of the 10 mM stock peptide was mixed with 45 µL of 100% methanol, and dried for 2 h in the SpeedVac concentrator (Thermo Scientific). The dried peptide was reconstituted in a buffer (1 mM Hepes pH 7.4 and 5% methanol) to a concentration of 1 mM. The peptide sample was placed in a quartz cuvette with a path length of 0.2 cm. The peptide concentration was determined by the absorbance of the peptide at […]. The CD spectrum was recorded from 300 to 190 nm using the Chirascan-plus qCD machine (Applied Photophysics, Surrey, UK), at 25 °C. All experiments were done in duplicates. The CD spectrum was converted to mean residue ellipticity before deconvolution and estimation of the secondary structure components of the peptide using the CDNN software (distributed by Applied Photophysics). Measurements were taken at least twice and were reported as arithmetic means.

[2] = tested on: Jump-In T-REx CHO-K1 BLA cells; test: cells; format: cell-based
[3] = tested on: p53 responsive β-lactamase reporter in HCT116 cells; test: cells; format: cell-based
Outline: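 Read-out used the ToxBLAzer Dual Screen for β-lactamase driven by a stably integrated p53-responsive reporter. Assay: 8000 HCT116 cells per well at 0.5% final DMSO. Reported numbers are geometric means over a minimum of three biological replicates.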

[4] = Lactate dehydrogenase (LDH) release assay; format: cell-based
Outline: (§1)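 Read-out was lactate dehydrogenase release, reflecting loss of membrane integrity, in reporter-engineered HCT116 cells (p53-responsive β-lactamase) seeded at 8000 cells per well. Final DMSO was 0.5%, and reported values are geometric means from three or more biological repeats.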

HCT116 cells = test: Lactate dehydrogenase (LDH) release assay; format: cell-based
Outline: as §1

human Mdm2 1–125 = target: T1, human Mdm2 1–125 (Homo sapiens, UniProt Q00987); test: Mdm2 binding by competitive fluorescence anisotropy assay (FP binding); conditions: read-out: FP binding assay KD
T1 construct: GST (N); His6 (internal); TEV cleavage site (ENLYFQG) (internal); made in house; host or cells: BL21 (DE3) Rosetta T1R Escherichia coli
T1 sequence (Q00987 with tags, fused parts or gaps): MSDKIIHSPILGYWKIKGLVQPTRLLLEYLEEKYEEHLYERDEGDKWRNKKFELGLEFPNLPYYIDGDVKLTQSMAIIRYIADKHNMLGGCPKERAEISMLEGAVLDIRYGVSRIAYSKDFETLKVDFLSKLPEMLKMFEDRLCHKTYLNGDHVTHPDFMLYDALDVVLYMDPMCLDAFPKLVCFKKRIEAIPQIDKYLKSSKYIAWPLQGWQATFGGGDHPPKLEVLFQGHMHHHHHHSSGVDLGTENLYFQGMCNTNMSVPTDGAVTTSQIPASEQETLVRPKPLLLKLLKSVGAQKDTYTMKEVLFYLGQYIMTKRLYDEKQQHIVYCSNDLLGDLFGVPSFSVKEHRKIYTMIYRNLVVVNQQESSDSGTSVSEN

[5] = 0% FBS 4Hr, read-out: TETCHO: Counterscreen EC50
[6] = 0% FBS 4Hr, read-out: p53 reporter assay: EC50
[7] = 0% FBS 4Hr, read-out: LDH: Cytotoxicity assay: EC50
[8] = 10% FBS 16Hr, read-out: TETCHO: Counterscreen EC50
[9] = read-out: Cell EC50 (4 hr, 0% FBS), p53 reporter assay, 4 hr, 0% FBS
[10] = read-out: Cell EC50 (16 hr, 10% FBS), p53 reporter assay, 16 hr, 10% FBS

Structure (SMILES)	CD % Helicity [1]	TETCHO: Counterscreen % Effect ([2]; 0% FBS 4Hr)	pEC50 [2, 5]	pEC50 [3, 6]	pEC50 [4, 7]	LDH: Cytotoxicity assay: % Effect (HCT116 cells; 0% FBS 4Hr)	pEC50 [2, 8]	pEC50 [3, 9]	pEC50 [3, 10]	also measured
CC(=O)N[C@@H](CC(C)C)C(=O)N[C@H](C(=O)N[C@@H](Cc1ccccc1)C(=O)N[C@]1(C)CCCCCCC=CCCC[C@@](C)(C(=O)N[C@@H](CO)C(=O)N[C@@H](C)C(=O)N[C@@H](C)C(N)=O)NC(=O)[C@H](CC2CCC2)NC(=O)[C@H](Cc2c[nH]cn2)NC(=O)[C@H](C)NC(=O)[C@H](Cc2c[nH]c3ccccc23)NC(=O)[C@H](Cc2ccc(O)cc2)NC(=O)[C@H](CCC(=O)O)NC1=O)[C@@H](C)O [MP-501, ATSP-7041 (Q8H)]	29.1%	216%	4.72	5.60	< 4.30	4.045%				TETCHO Counterscreen % Effect ([2]; 4 hours, 0% serum, efficacy at 50 μM relative to tetracycline control): 216%; pEC50 ([2]; 4 hours, 0% serum, read-out: TETCHO Counterscreen EC50): 4.72; pEC50 ([3]; 0% FBS 16Hr, read-out: p53 reporter assay: EC50): 4.54
CC(=O)N[C@@H](CC(C)C)C(=O)N[C@H](C(=O)N[C@@H](Cc1ccccc1)C(=O)N[C@]1(C)CCCCCCC=CCCC[C@@](C)(C(=O)N[C@@H](C)C(=O)N[C@@H](C)C(=O)N[C@@H](C)C(=O)N[C@@H](C)C(=O)N[C@@H](C)C(=O)N[C@@H](C)C(N)=O)NC(=O)[C@H](CC(C)C)NC(=O)[C@H](CCC(N)=O)NC(=O)[C@H](C)NC(=O)[C@H](Cc2c[nH]c3ccccc23)NC(=O)[C@H](Cc2ccc(O)cc2)NC(=O)[C@H](CCC(=O)O)NC1=O)[C@@H](C)O [MP-688] (Ac-LTF[R8]EYWAQL[S5]AAAAAA-NH2; staple 4-11)	49.8%		< 4.30				< 4.30	6.80	5.89	Aqueous solution helicity ([1]; circular dichroism): 49.8%; pEC50 ([3]; 0% FBS 4Hr, read-out: p53 reporter assay EC50): 6.80; pEC50 ([3]; 10% FBS 16Hr, read-out: p53 reporter assay EC50): 5.87; pEC50 ([4]; 0% FBS 4Hr, read-out: LDH: Cytotoxicity assay EC50): < 4.29; pEC50 ([4]; 10% FBS 16Hr, read-out: LDH: Cytotoxicity assay EC50): < 4.29
CC(=O)N[C@@H](CCCCN=[N+]=[N-])C(=O)NCCC(=O)N[C@@H](CC(C)C)C(=O)N[C@H](C(=O)N[C@@H](Cc1ccccc1)C(=O)N[C@]1(C)CCCCCCn2cc(nn2)CCC[C@@](C)(C(=O)N[C@@H](CO)C(=O)N[C@@H](C)C(=O)N[C@@H](C)C(N)=O)NC(=O)[C@H](CC2CCC2)NC(=O)[C@H](CCC(N)=O)NC(=O)[C@H](C)NC(=O)[C@H](Cc2c[nH]c3ccccc23)NC(=O)[C@H](Cc2ccc(O)cc2)NC(=O)[C@H](CCC(=O)O)NC1=O)[C@@H](C)O [MP-707]	33.95%	-1.105%	< 4.30	5.80	< 4.29	-2.492%	< 4.30	5.80	4.87	TETCHO: Counterscreen % Effect ([2]; 10% FBS 16Hr): -2.89%; p53 reporter assay: % Effect ([3]; 0% FBS 4Hr): 101.9%; p53 reporter assay: % Effect ([3]; 10% FBS 16Hr): 63.44%; pEC50 ([3]; 10% FBS 16Hr, read-out: p53 reporter assay: EC50): 4.87; pEC50 ([4]; 10% FBS 16Hr, read-out: LDH: Cytotoxicity assay: EC50): < 4.29; LDH: Cytotoxicity assay: % Effect (HCT116 cells; 10% FBS 16Hr): 13.49%
CC(=O)N[C@H](C(=O)N[C@@H](CO)C(=O)NC(C)(Cc1ccccc1)C(=O)N[C@@H]1CCCCCCC=CCCC[C@@H](C(N)=O)NC(=O)C(C)(CC(C)C)NC(=O)[C@H](CC(C)C)NC(=O)[C@H](C)NC(=O)[C@H](Cc2c[nH]c3ccccc23)NC(=O)[C@H](Cc2ccc(O)cc2)NC(=O)[C@H](CCC(=O)O)NC1=O)[C@@H](C)O (stereo partly drawn) [MP-792]	25.3%	20.04%	4.31	4.91						pKd (human Mdm2 1–125): 6.70; TETCHO: Counterscreen % Effect ([2]; 0% FBS 16Hr): -1.02%; pEC50 ([4]; LDH: Cytotoxicity assay: EC50): < 4.30; LDH: Cytotoxicity assay: % Effect (HCT116 cells): 10.77%
